Data taken from PMC11009956, “Initial Primer Synthesis of a DNA Primase Monitored by Real-Time NMR Spectroscopy” (Journal of the American Chemical Society, 2024).

What was measured:
functional pRN1 primase [1] = molecular target: T1, functional pRN1 primase (Saccharolobus islandicus, UniProt Q54324); test: […] CP-MAS solid-state NMR; 1H-detected hNH NMR; type: biochemical; conditions: formed in situ from ATP^N and dGTP^C on primase-DNA complex; triphosphate remains bound to HBD
T1 construct: primase part (catalytic domain plus HBD), residues 40-370, monomeric, expressed in E. coli BL21(DE3) Codon+, Ni2+ IMAC purified (tag not described)

[2] = molecular target: T2, helix-bundle domain (HBD) of pRN1 primase (Saccharolobus islandicus, UniProt Q54324); test: 1H-15N HSQC NMR titration; type: binding; conditions: 10 mM MgCl2, pH 7.0, 298 K
T2 construct: helix-bundle domain, residues 256-370, expressed in E. coli BL21(DE3) Codon+, Ni2+ IMAC purified (tag not described)

functional pRN1 primase [3] = molecular target: T1, functional pRN1 primase; test: time-resolved solution NMR of dinucleotide formation; type: biochemical; conditions: primase-DNA complex
functional pRN1 primase [4] = molecular target: T1, functional pRN1 primase; test: […] CP-MAS solid-state NMR; 1H-15N HSQC NMR; type: biochemical; conditions: primase-DNA complex with dGTP^C; 10 mM MgCl2, pH 7.0; slow substrate
[5] = molecular target: T2, helix-bundle domain (HBD) of pRN1 primase; test: 1H-15N HSQC NMR; type: binding; conditions: HBD-DNA complex
[6] = molecular target: T3, catalytic domain of pRN1 primase (Saccharolobus islandicus, UniProt Q54324); test: 1H-15N HSQC NMR titration; type: binding; conditions: free catalytic domain, no DNA; 10 mM MgCl2, pH 7.0, 298 K; near active site (V148, S150)
T3 construct: catalytic domain, residues 40-248, expressed in E. coli BL21(DE3) Codon+, Ni2+ IMAC purified (tag not described)

functional pRN1 primase [7] = molecular target: T1, functional pRN1 primase; test: […] CP-MAS solid-state NMR; type: biochemical; conditions: primase-DNA complex with ATP^N; 10 mM MgCl2, pH 7.0, 281 K; bound by HBD, slow substrate
functional pRN1 primase [8] = molecular target: T4, functional pRN1 primase (Saccharolobus islandicus, UniProt Q54324, H145A); test: […] CP-MAS solid-state NMR; type: binding; conditions: catalytically inactive mutant; primase-DNA complex with ATP^N; 10 mM MgCl2, pH 7.0
T4 construct: primase part (catalytic domain plus HBD), residues 40-370, monomeric, expressed in E. coli BL21(DE3) Codon+, Ni2+ IMAC purified (tag not described)

[9] = molecular target: T5, pRN1 primase (functional primase) (Sulfolobus islandicus (plasmid pRN1), UniProt Q54324 40-370); test: NMR (1H-15N HSQC; 31P CP-MAS); ATPC + dGTPC; HBD titrations: 25 mM sodium phosphate pH 7.0, 75 mM NaCl, 10 mM MgCl2, 298 K, 0.1 mM HBD, HBD:DNA 1:1.1; solid-state NMR on sedimented complex at 278-309 K; conditions: protein: recombinant; single strand
T5 sequence: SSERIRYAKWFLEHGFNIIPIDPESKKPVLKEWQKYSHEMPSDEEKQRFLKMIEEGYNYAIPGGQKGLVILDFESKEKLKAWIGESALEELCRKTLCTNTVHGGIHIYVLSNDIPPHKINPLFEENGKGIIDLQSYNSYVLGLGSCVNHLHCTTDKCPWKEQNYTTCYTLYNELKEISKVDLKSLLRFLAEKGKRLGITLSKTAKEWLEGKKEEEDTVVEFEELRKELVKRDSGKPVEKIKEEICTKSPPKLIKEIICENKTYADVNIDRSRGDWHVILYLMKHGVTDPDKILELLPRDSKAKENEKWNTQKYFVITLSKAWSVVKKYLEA

pRN1 primase H145A = molecular target: T6, pRN1 primase H145A (Sulfolobus islandicus (plasmid pRN1), UniProt Q54324 40-370, H145A); test: solid-state NMR (31P CP-MAS, hNH); ATPN + dGTPC, Mg2+; HBD titrations: 25 mM sodium phosphate pH 7.0, 75 mM NaCl, 10 mM MgCl2, 298 K, 0.1 mM HBD, HBD:DNA 1:1.1; solid-state NMR on sedimented complex at 278-309 K; conditions: protein: recombinant; single strand
T6 sequence: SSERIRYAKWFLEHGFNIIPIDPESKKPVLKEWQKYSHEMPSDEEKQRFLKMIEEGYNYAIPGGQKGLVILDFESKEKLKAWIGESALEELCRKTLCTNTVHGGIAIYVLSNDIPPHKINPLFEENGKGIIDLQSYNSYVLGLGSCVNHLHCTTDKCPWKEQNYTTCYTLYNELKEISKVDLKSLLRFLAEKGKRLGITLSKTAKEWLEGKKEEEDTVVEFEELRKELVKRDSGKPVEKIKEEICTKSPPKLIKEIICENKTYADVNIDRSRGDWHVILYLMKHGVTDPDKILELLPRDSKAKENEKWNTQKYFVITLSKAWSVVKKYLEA

[10] = molecular target: T7, pRN1 primase helix-bundle domain (HBD) (Sulfolobus islandicus (plasmid pRN1), UniProt Q54324 256-370); test: NMR (1H-15N HSQC); ATP + dGTP, 10 mM Mg2+, 298 K; HBD titrations: 25 mM sodium phosphate pH 7.0, 75 mM NaCl, 10 mM MgCl2, 298 K, 0.1 mM HBD, HBD:DNA 1:1.1; solid-state NMR on sedimented complex at 278-309 K; conditions: protein: recombinant; single strand
T7 sequence: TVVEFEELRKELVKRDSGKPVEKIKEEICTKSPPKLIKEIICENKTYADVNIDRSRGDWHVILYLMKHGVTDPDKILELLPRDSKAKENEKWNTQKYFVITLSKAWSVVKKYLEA

**Q.** With Nc1nc2c(ncn2[C@H]2C[C@H](O)[C@@H](COP(=O)(O)O[C@H]3[C@@H](O)[C@H](n4cnc5c(N)ncnc54)O[C@@H]3COP(=O)(O)OP(=O)(O)NP(=O)(O)O)O2)c(=O)[nH]1 as the molecule, how does the “31P CP-MAS solid-state NMR; 1H-detected hNH NMR” value (functional pRN1 primase [1]) read?
**A.** We attribute this initial increase to dinucleotide formation and subsequent binding to pRN1 primase

**Q.** Nc1ncnc2c1ncn2[C@@H]1O[C@H](COP(=O)(O)OP(=O)(O)OP(=O)(O)O)[C@@H](O)[C@H]1O [ATP] was tested. Which “1H-15N HSQC NMR titration” value ([2]; HBD-DNA complex, two ATP bound) did it give?
**A.** The data reveal that HBD binds one ATP and one dGTP

**Q.** And the “time-resolved solution NMR of dinucleotide formation” value (functional pRN1 primase [3]; co-substrate dGTP)?
**A.** dinucleotide formation with the cognate NTPs was terminated within several minutes

**Q.** For Nc1ncnc2c1ncn2[C@@H]1O[C@H](COP(=O)(O)OP(=O)(O)CP(=O)(O)O)[C@@H](O)[C@H]1O [ATP^C], which “31P CP-MAS solid-state NMR; 1H-15N HSQC NMR” value (functional pRN1 primase [4]) is on record?
**A.** indeed showing the bound dGTP^C and ATP^C as well as the DNA

**Q.** And the “1H-15N HSQC NMR” value ([5]; added together with dGTP^C)?
**A.** both ATP^C and dGTP^C were rapidly added to the HBD-DNA^CT complex

**Q.** Nc1nc2c(ncn2[C@@H]2O[C@H](COP(=O)(O)OP(=O)(O)OP(=O)(O)O)[C@@H](O)[C@H]2O)c(=O)[nH]1 [GTP] was tested. Which “1H-15N HSQC NMR titration” value ([2]; HBD-DNA complex with ATP) did it give?
**A.** it could bind to the HBD domain in the same manner as for the dGTP substrate

**Q.** Which “1H-15N HSQC NMR titration” value [6] does the source give for Nc1ncnc2c1ncn2[C@H]1C[C@H](O)[C@@H](COP(=O)(O)OP(=O)(O)OP(=O)(O)O)O1 [dATP] here?
**A.** addition of dATP to the catalytic domain resulted in visible CSPs of V148 and S150

**Q.** Which results are given for Nc1nc2c(ncn2[C@H]2C[C@H](O)[C@@H](COP(=O)(O)OP(=O)(O)OP(=O)(O)O)O2)c(=O)[nH]1 [dGTP]?
**A.** 1H-15N HSQC NMR titration ([2]; HBD-DNA complex with ATP, displaces one ATP): titration of dGTP in a solution of HBD-DNA^CT-2ATP led to the substitution of one ATP; time-resolved solution NMR of dinucleotide formation (functional pRN1 primase [3]; co-substrate ATP): active primase bound to DNA^CT and the cognate NTPs (ATP and dGTP)

**Q.** How did the “31P CP-MAS solid-state NMR” value (functional pRN1 primase [7]) turn out when Nc1nc2c(ncn2[C@H]2C[C@H](O)[C@@H](COP(=O)(O)OP(=O)(O)CP(=O)(O)O)O2)c(=O)[nH]1 [dGTP^C] was run?
**A.** The isolated resonances of bound dGTP^C decrease in the solid state

**Q.** And the “1H-15N HSQC NMR” value ([5]; added together with ATP^C)?
**A.** both ATP^C and dGTP^C were rapidly added to the HBD-DNA^CT complex

**Q.** What about the “31P CP-MAS solid-state NMR” value (functional pRN1 primase [8]) of the same molecule?
**A.** wt primase and the mutant H145A bound to DNA^CT, ATP^N and dGTP^C

B1: DNACT (GTG-motif template) (ssDNA)
DNA: CTGTGCTCA
**Q.** What does the source list for B1?
**A.** binding result [9]: binds; binding result (pRN1 primase H145A): binds; binding result [10]: binds
